These are literature values, as cited in US9623004B2, “Administration of a therapeutic amount of genistein to mitigate erectile dysfunction resulting from radiation therapy for prostate cancer only throughout a defined administration period commencing shortly before and concluding after radiation therapy” (Humanetics Corporation, priority 2013, dated 2017).

Assay in data set [1]: not given
The source holds these as a separate data set.

In the case of `O=c1c(-c2ccc(O)cc2)coc2cc(O)cc(O)c12` [Genistein, 5,7-dihydroxy-3-(4-hydroxyphenyl)-chromen-4-one], the solubility in water result is given as “virtually insoluble in water”. Further, the “beneficial effects in other clinical trials” value in data set [1] is reported as “no beneficial effects”.
